What was measured:
[1] = tested on: EMT markers (ZO1, Slug, Snail, N-cadherin, Vimentin) in H460 cells; test: Western blot of EMT markers; assay type: cell-based, human
From the text: EMT is a biological process that is associated with cancer progression and the spread of cancer cells to other parts of the body. This mechanism facilitates the motility of cancer cells, enhances anoikis resistance, and contributes to poor prognosis due to its high metastatic potential. Given the critical role of EMT in the metastasis processes, we firstly investigated EMT markers. Therefore, to validate that DH_31 inhibits metastasis, H460 cells were selected to elucidate the mechanism because of their enhanced migration and invasion behavior [36]. H460 cells were exposed to the non-toxic concentration range of 0–2.5 µM of DH_31 for 24 h. Subsequently, the evaluation of EMT expression levels was carried out through the application of immunofluorescence assay and Western blotting. We further investigated key hallmarks of EMT, specifically the reduction in the expression levels of epithelial marker (ZO1) and the increase in the expression levels of mesenchymal markers (Slug, Snail, ZEB1, N-cadherin, and Vimentin). […] The expressions of Snail, N-cadherin, and Vimentin were reduced in a concentration-dependent manner. […] Furthermore, the results from the Western blot analysis confirmed the findings from immunofluorescence staining (Figure 3C). […] The protein alterations in response to DH_31 were clarified.
Western blot analysis was performed to detect and quantify specific proteins in a sample. H460 cells (4.0 × 10^5 cells per well) were seeded in 6 well plates. Following overnight incubation, the cells were treated with different concentrations of DH_31 (0–2.5 μM) for 24 h at 37 °C. After treatment, the cell lysates were isolated using a 1 × RIPA buffer containing a protease inhibitor cocktail for 45 min at 4 °C. The protein content was determined using the BCA protein assay kit. For the Western blot assay, an equal amount of the denatured proteins from cell lysates was separated by electrophoresis on 10 or 12% SDS-PAGE and transferred to 0.2 µm polyvinylidene difluoride (PVDF) membranes (Bio-Rad Laboratories, Hercules, CA, USA). After the membranes were blocked with 5% skim milk, they were then incubated overnight with specific primary antibodies at 4 °C. Subsequently, the membranes were incubated with HRP-conjugated secondary antibodies for 1 h at room temperature. Protein bands were visualized using SuperSignal^TM West Pico PLUS Chemiluminescent Substrate. The protein intensity was analyzed using ImageJ™ software (Image J 1.52a, Rasband, W., National Institutes of Health, Bethesda, MD, USA).

STAT3 = molecular target: T1, STAT3 (Homo sapiens, UniProt P40763); test: STAT3 immunofluorescence and confocal microscopy; assay type: cell-based; settings: H460, 2.5 µM, 24 h (p < 0.001)
T1 construct: endogenous in cells; host or cells: NCI-H460 (ATCC HTB-177)
Protocol: To explore whether DH_31 could suppress STAT3, H460 cells were treated with 1 and 2.5 μM of DH_31 for 24 h. Immunofluorescence and confocal microscopy were performed to visualize STAT3 expression.
Immunofluorescence staining and confocal microscopy were conducted to visualize the subcellular localization and spatial distribution of specific proteins. H460 cells (1.0 × 10^4 cells per well) were seeded in 96-well plates. Following overnight incubation, the cells were treated with different concentrations of DH_31 (0–2.5 μM) for 24 h at 37 °C. After treatment, the cells were permeabilized with 0.5% Triton-X in PBS for 5 min, followed by the blocking of non-specific proteins with 10% FBS in 0.1% Triton-X PBS for 1 h at room temperature. Subsequently, the cells were exposed to primary antibodies (STAT3, Slug, Snail, Vimentin, N-cadherin, ZO1, and ZEB1) and incubated at 4 °C overnight. The cells were then incubated with Alexa Fluor 488- or 594-conjugated secondary antibodies and Hoechst 33342 for 1 h at room temperature. After washing with PBS, the cells were covered with 50% glycerol. The images were captured by confocal microscopy (Zeiss, Jena, Germany). The fluorescence intensity was measured using ImageJ™ software (Image J 1.52a, Rasband, W., National Institutes of Health, Bethesda, MD, USA).

T1 sequence (P40763 whole entry): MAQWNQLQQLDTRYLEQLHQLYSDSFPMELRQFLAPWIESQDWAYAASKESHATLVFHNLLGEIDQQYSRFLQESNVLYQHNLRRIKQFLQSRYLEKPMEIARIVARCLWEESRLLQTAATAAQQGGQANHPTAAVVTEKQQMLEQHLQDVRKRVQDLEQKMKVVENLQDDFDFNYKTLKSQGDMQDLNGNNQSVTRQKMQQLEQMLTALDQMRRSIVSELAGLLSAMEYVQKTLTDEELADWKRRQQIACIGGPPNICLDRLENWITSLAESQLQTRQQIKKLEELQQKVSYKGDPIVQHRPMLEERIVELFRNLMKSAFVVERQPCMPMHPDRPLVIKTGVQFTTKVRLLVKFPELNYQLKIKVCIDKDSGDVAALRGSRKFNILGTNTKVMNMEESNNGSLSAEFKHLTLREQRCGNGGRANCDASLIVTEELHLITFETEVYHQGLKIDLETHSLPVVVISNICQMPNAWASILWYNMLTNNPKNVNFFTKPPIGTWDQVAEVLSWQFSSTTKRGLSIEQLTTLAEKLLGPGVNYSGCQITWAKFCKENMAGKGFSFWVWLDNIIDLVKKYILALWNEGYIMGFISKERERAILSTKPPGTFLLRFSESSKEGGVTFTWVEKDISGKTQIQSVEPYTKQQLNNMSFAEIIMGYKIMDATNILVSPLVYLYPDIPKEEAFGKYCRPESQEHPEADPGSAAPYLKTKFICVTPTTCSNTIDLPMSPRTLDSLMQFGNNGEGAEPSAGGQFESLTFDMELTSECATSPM

COc1c(C)cc2c(c1O)[C@@H]1CN(Cc3ccc4ccccc4c3)[C@@H](C#N)[C@H](C2)N1C [DH_31, (1R,4R,5S)-10-hydroxy-9-methoxy-8,11-dimethyl-3-(naphthalen-2-ylmethyl)-1,2,3,4,5,6-hexahydro-1,5-epiminobenzo[d]azocine-4-carbonitrile]
Snail expression (Western blot) ([1]; H460, 1 µM (p < 0.05) and 2.5 µM (p < 0.01), 24 h): reduced
N-cadherin expression (Western blot) ([1]; H460, 2.5 µM, 24 h (p < 0.05)): reductions
Slug expression (Western blot) ([1]; H460, 2.5 µM, 24 h (p < 0.05)): reductions
Vimentin expression (Western blot) ([1]; H460, 2.5 µM, 24 h (p < 0.05)): reductions
STAT3 expression (immunofluorescence) (STAT3): significant reduction

From PMC11355573, “A New Renieramycin T Right-Half Analog as a Small Molecule Degrader of STAT3” (Marine Drugs, 2024)
